This is an account of results in paper PMC11148078, “Potent activity of polymyxin B is associated with long-lived super-stoichiometric accumulation mediated by weak-affinity binding to lipid A” (Nature Communications, 2024).

Bridge positions count the residues as written; N and C are the ends. Square brackets hold non-standard residues; d marks the D form. Peptide text beside a SMILES is read from it. * marks the point of attachment. X1 = CC[C@H](C)CCCCC(=O)*; Dab = NCC[C@H](N)C(=O)O

The subject of one experiment is wt-OMVs. Nature of the experiment: Three-state model fit to SPR titration, wt-OMVs. The format is binding, E. coli. An excerpt:
(§1) To estimate binding constants, the three-state model was fit to binding curve titrations (Fig. 5A, B, and Table 2). Briefly, the SPR response curves of polymyxin B binding wt-OMVs (Fig. 5A) or resistant OMVs (Fig. 5B) were globally fit to Eqn. (1) by non-linear regression coupled to numerical integration of the associated ordinary differential equations (see Supplementary Information Section 2A), which define the time-dependent concentrations of each species.1 Response(t)=([PMBL]t+[nPMBL]t+2*[tPMB]t+m.[cPMB]t).MW.G.
(§2) Section 2A - Formulation of three-state model for fitting SPR data
(§3) The three-state model (Fig. 4) was formulated as a set of coupled ordinary differential equations (ODEs), with eight binding rate constants (k1-8) governing the rates of interchange of each species.
(§4) Forward rate constants k7 and k9 were eliminated from the equation set as formation of transient species tPMB and LL are irreversible.
(§5) Time at Injection 1 start = 0 s
(§6) Sample contact time = 30 s
(§7) Dissociation time interval = 35 s
(§8) Mass transport rate = kt = 46.5 1/s
(§9) Initial Species Concentrations
(§10) Coupled ODEs of Three-State Model d[L]/dt = -(k1.[PMB].[L] - k2.[PMBL])+2*k10.[LL] (S8) d[PMB]/dt = -(k1.[PMB].[L] - k2.[PMBL]) + kt’.([PMBi](t) –[PMB]) (S9) d[PMBL]/dt = (k1.[PMB]*[L] - k2.[PMBL])-(k3.[PMBL].[n] - k4.[nPMBL] ) (S10) d[n]/dt = -(k3.[PMBL].[n] - k4.[nPMBL] ) (S11) d[nPMBL]/dt = (k3.[PMBL].[n] - k4.[nPMBL])-2.(k5.[nPMBL].[nPMBL] - k6.[tPMB].[LL] ) (S12) d[tPMB]/dt = (k5.[nPMBL].[nPMBL] - k6.[tPMB].[LL] ) – k8.[tPMB] (S13) d[cPMB]/dt = 2*k8.[tPMB] (S14) d[LL]/dt = (k5.[nPMBL].[nPMBL] – k6.[tPMB].[LL]) – k10.[LL] (S15)
(§11) The initial concentrations of each species were as follows
(§12) [PMB]t=0 = [PMBL]t=0 = [nPMBL]t=0 = [tPMB]t=0 = [LL]t=0 = [cPMB]t=0 = 0 [L]t=0 = [n]t=0 = 1.56 x 10-4 (units, M) kt’ (units, m/s) was already defined in SI Section 1A. [PMBi](t) is the injected concentration profile and [PMB]t is the concentration profile at the sensing surface. [PMBi](t) follows a serial-doubling concentration of injected analyte, with a concentration profile defined by a serial step function, where each injection step represents a discrete concentration followed by a dissociation step without injected analyte and this is repeated for each concentration in the SCK dosing series.
(§13) Kintek Explorer V9.5 was used to build and fit the three-state model. This program employs its own numerical integrator9, which reports the change in concentration of each species over time.
(§14) The SPR responses for concentrations of each accumulating PMB-species estimated from Eqn (8 - 15) are summed over time in Eqn (1), repeated here.
(§15) Response(t) = ([PMBL]t+[nPMBL]t+2*[tPMB]t+m.[cPMB]t).MW.G. Eqn (1)
The concentration of [tPMB]t is multiplied by two to account for its additional mass, being composed of two PMB molecules. Insertion of PMB into the acyl-LPS matrix to form cPMB is associated with changes in the phase state of LPS10 and is also likely associated with redistribution of mass towards the sensing surface11. These changes will manifest as an increase in sensitivity of the SPR binding response when clusters are formed and are included in Eqn (1) […]
using a sensitivity coefficient (m). MW is the molecular weight of the injected analyte, in this case PMB (1203.48 Da). The constant, G, is a unit conversion factor that converts protein concentration (g/L) to response (RU) and is typically 100 (units, RU.L/g). […]

The next experiment has as its system resistant-OMVs. Nature of the experiment: Three-state model fit to SPR titration, resistant-OMVs. The class given is binding, E. coli. Particulars: resistant-OMV.
From the text: as §1, §2, §3, §4, §5, §6, §7, §8, §9, §10, §11, §12, §13, §14, §15
The concentration of [tPMB]t is multiplied by two to account for its additional mass, being composed of two PMB molecules. […]

In experiment [1] the test system is E. coli cells, OMVs, and LPS. Nature of the experiment: SPR apparent association rate averaged over cells, OMVs and LPS. The class given is binding. Particulars: averaged for cells. As for the experimental part: OMV-coated and whole cell-coated C1 chips were prepared as already described with the following changes and LPS-coated surfaces were prepared identically but with rough-LPS extracted from E. coli F583 (Rd mutant, Sigma #L6893). For LPS, cloudy colloid suspension (above its CMC, ~1 mg/ml) contains LPS micelles that were injected and captured. For all formats, sample buffer and running buffer were composed of Dulbecco’s phosphate-buffered salt solution containing 0.0005% tween-80 (Sigma), 1 mM calcium and 0.5 mM magnesium (Fisher Scientific), pH 7.4. Analysis and compartment temperatures were both set to 37 °C. Freshly prepared OMV-coated or whole cell-coated sensing surfaces were employed for each injection of polymyxin B while LPS-coated sensing surfaces could be fully regenerated by injecting 50 mM CHAPS. Reversibly bound PMBN could be reinjected over all surfaces without requiring regeneration as it fully dissociated within a few minutes.
Fresh sensing surfaces coated with whole cells and OMVs were prepared and 325 nM polymyxin B was injected at […] for 120 s over both. This injection was repeated after a long delay, and without regeneration, in order to allow free sites to become available thereby resulting in two polymyxin B binding curves for each sensing surface (Fig. 3E, F). […]

The compound `CC[C@H](C)CCCCC(=O)N[C@@H](CCN)C(=O)N[C@H](C(=O)N[C@@H](CCN)C(=O)N[C@H]1CCNC(=O)[C@H]([C@@H](C)O)NC(=O)[C@H](CCN)NC(=O)[C@H](CCN)NC(=O)[C@H](CC(C)C)NC(=O)[C@@H](Cc2ccccc2)NC(=O)[C@H](CCN)NC1=O)[C@@H](C)O` [Polymyxin B] (X1-[Dab]T[Dab][Dab][Dab][dF]L[Dab][Dab]T; lactam 4-C (inferred); N-terminus assumed) yielded a k5 with wt-OMVs (dimerization of nPMBL, global fit, max 625 nM) of 20.75 M⁻¹ s⁻¹. For the same compound, the k3 was determined as 2233 M⁻¹ s⁻¹ in the experiment with wt-OMVs (membrane insertion / nPMBL formation, global fit, max 625 nM) and 335 M⁻¹ s⁻¹ in the experiment with resistant-OMVs (first two states, max 625 nM). Also, the k4 with wt-OMVs (nPMBL dissociation, global fit, max 625 nM) stood at 0.00488 s⁻¹; with resistant-OMVs (first two states, max 625 nM), 0.0085 s⁻¹. Also, the “relative fraction of transition state” value with wt-OMVs (peer review file) is given as less than 0.1%. The “residence time = 1/k4” value with wt-OMVs (stability of nucleates (nPMBL)) worked out at 205 s. Also, the Kd at resistant-OMVs (fitted, first two states, max 625 nM, read-out: KD = k2/k1) was 268 nM. The kt in the experiment with resistant-OMVs (mass transport rate) is listed as 44.6 ms^−1. The “ka, apparent association rate constant” value in experiment [1] is on record as 2.1 (±0.78) × 10^5 M^−1 s^−1.
